Assay [1] addresses T1, MMP9 processing by HFL-1 cells (Homo sapiens, UniProt P14780).
T1 construct: host or cells: HFL-1 human fetal lung fibroblasts, TNFα plus neutrophil elastase
As to the kind of experiment: Activation of proMMP9 by human fetal lung fibroblast (HFL-1) cultures (Western blot). The assay is classed as cell-based. The following applies: 3.3 μM, 30 nM elastase, final 72 hrs; mAb-L51/82. The method, then: Compound-α was assessed additionally for ability to block the maturation of proMMP9 to active MMP9 in cultures of human fetal lung fibroblasts (HFL-1, American Type Culture Collection #CCL-153). Unlike rat synoviocytes, HFL-1 cells were unable to process proMMP9 to the active form without addition of neutrophil elastase. […] Rather, the function of elastase in this assay may be to inactivate tissue inhibitors of matrix metalloproteinases (TIMPs) that repress endogenous pathways of MMP9 activation (Am J Respir Crit. Care Med; 1999; 159:1138-46).
HLF-1 were maintained in monolayer culture in DMEM with 10% FCS and were used between passage numbers 5-15. HLF-1 were embedded in collagen gels as described for rat SCW synoviocytes (vida supra). Half mL gels containing 0.4 million cells were dislodged into wells of 12 well Costar plates containing 1 mL/well of DMEM adjusted to contain 0.05% BSA and 100 ng/mL human TNFα (R&D Systems Cat #210-TA/CF). After overnight culture (37° C. and 5% CO2) wells were adjusted to contain an additional 0.5 mL of DMEM containing 0.05% BSA and with or without 13.2 μM Compound-α (final concentration was 3.3 μM Compound-α). Next, cultures were adjusted to contain 30 nM human elastase (Innovative Research). The plates were cultured an additional 72 hrs, at which time MMP9 secreted into the conditioned media was bound to gelatin-sepharose and evaluated by Western blot analysis as described for the rat synoviocyte cultures (vida supra). mAb-51/82 detected three forms of MMP9 in HFL-1 cultures.
These included a form of approximately 100 kD with mobility similar to recombinant rat proMMP9, an approximately 80 kD form with mobility similar to rat active MMP9, and an approximately 86 kD intermediate form. In the absence of Compound-α, most of the MMP9 was present as the 80 kD form. In the presence of Compound-α, the 80 kD form was a minor fraction of the total signal while nearly half of the signal were contributed each by the 100 kD and 86 kD forms. […]
A second experiment was performed to determine if the 80 kD form was mature active MMP9 and to determine the potency of Compound-α as an inhibitor of MMP9 maturation in this assay. HFL-1 cells embedded in collagen gels were cultured as described above in the presence of TNFα overnight and the cultures were then adjusted to contain 30 nM elastase and graded concentrations of Compound-α for an additional 72 hrs at which time MMP9 secreted into the conditioned media was bound to gelatin-sepharose and evaluated by Western blot analysis for active MMP9 using pAb-1246 raised against the N-terminal neoepitope of active MMP9 (Table 5). In the absence of Compound-α, pAb-1246 readily detected MMP9 with an electrophoretic mobility of approximately 80 kD. […]
(Immunoblotting shows a protein as a band on a membrane.)

For assay [2], the target named is T2, MMP9 mediated gelatinase activity in the livers (Rattus norvegicus, UniProt P50282).
T2 construct: from tissue; host or cells: frozen liver sections of female Lewis rats
Nature of the assay: In situ zymography of gelatinase activity in livers of SCW-induced rats dosed with compound. The assay is classed as in vivo. The following applies: for Intensity, Mean / Intensity, Rat 1 / Intensity, Rat 2 / Intensity, Rat 3: SCW, Day 25-28. From the text:
Compound-α Reduced MMP9 Mediated Gelatinase Activity in the Livers of Rats with SCW Arthritis In situ zymography provides an alternative approach to assess active MMP9 in tissues (Frederiks). Tissue sections are overlain with fluorescene-conjugated gelatin wherein the conjugation is sufficiently dense to cause the fluorescene to be dye-quenched (DQ). Proteolytic degradation of the DQ-gelatin releases the fluorescene from the quenching effect giving rise to bright green fluorescence at the site of degradation. Because in situ zymography requires the use of frozen sections, calcified tissues are problematic. However, an additional feature of the SCW arthritis model is the development of hepatic granulomatous disease (J Immunol; 1986; 137:2199-2209), and MMP9 reportedly plays a role in macrophage recruitment in the granulomas response to mycobacteria (Infect Immun; 2006; 74:6135-6144). Consequently, granulomatous livers from SCW-treated rats were assessed for active MMP9 by in situ zymography.
As described above, Female Lewis (LEW/N) rats, 5-6 weeks of age (80-100 g) were injected (i.p.) with saline or SCW PG-PS. On day 28, when the granulomatous response was well established, animals were sacrificed and livers were frozen in OCT cryo-sectioning medium and 10 μm sections were cut on a Cryome HM 500 M cryotome and mounted on glass microscope slides. Sections were air dried briefly. MMP9 was confirmed as the source of the gelatinase activity in the liver by treating liver sections with monoclonal antibodies directed against the active site of the two major gelatinases MMP9 and MMP2. Liver sections overlain with 50 μL of 100 μg/mL neutralizing mouse monoclonal antibodies directed against MMP9 (Calbiochem, clone 6-6B), or MMP2 (Millipore, clone CA-4001), or with PBS for 1 hr at room temperature. Tissues were rinsed once with PBS, blotted, and briefly air dried and then overlain with DQ-gelatin (Invitrogen) dissolved to 1 mg/mL in deionized water and then diluted 1:10 in 1% wt/vol low gelling point agarose type VII (Sigma) in PBS. The sections were covered with coverslips, incubated in the dark at room temperature for 20 min, and imaged on an Olympus IX80 inverted microscope fitted with fluorescence optics, using SlideBook™ imaging software (Intelligent Imaging Innovations, Inc., Philadelphia, Pa.; version 5.0). Fluorescence intensity was determined (Table 8). When compared to a saline-treated rat, gelatinase activity was abundantly expressed in granulomatous liver sections obtained from a rat with SCW arthritis.
Next, liver in situ zymography was used to assess the relative presence of active MMP9 in rats dosed with vehicle vs. Compound-α. Female Lewis (LEW/N) rats, 5-6 weeks of age (80-100 g) were injected (i.p.) with saline or SCW PG-PS. Commencing on day 25, randomized groups of rats (n=3 rats/group) received vehicle or 20 or 50 mg/kg Compound-α BID by oral gavage. Vehicle consisted of an aqueous mixture containing 2% (v:v) N-methylpyrrolidone, 5% (v:v) glycerine, and 20% (w:v) captisol. Treatment continued daily through the morning of day 28. Four hrs after the AM dose on day 28, rats were sacrificed and livers assessed for active MMP9 by in situ zymography (Table 9). Gelatinase activity was increased markedly in SCW-induced rats, but activity was reduced by approximately 80% in animals treated with 50 mg/kg Compound-α.

The structures appear in SMILES notation.

T1 sequence (P14780 20-707): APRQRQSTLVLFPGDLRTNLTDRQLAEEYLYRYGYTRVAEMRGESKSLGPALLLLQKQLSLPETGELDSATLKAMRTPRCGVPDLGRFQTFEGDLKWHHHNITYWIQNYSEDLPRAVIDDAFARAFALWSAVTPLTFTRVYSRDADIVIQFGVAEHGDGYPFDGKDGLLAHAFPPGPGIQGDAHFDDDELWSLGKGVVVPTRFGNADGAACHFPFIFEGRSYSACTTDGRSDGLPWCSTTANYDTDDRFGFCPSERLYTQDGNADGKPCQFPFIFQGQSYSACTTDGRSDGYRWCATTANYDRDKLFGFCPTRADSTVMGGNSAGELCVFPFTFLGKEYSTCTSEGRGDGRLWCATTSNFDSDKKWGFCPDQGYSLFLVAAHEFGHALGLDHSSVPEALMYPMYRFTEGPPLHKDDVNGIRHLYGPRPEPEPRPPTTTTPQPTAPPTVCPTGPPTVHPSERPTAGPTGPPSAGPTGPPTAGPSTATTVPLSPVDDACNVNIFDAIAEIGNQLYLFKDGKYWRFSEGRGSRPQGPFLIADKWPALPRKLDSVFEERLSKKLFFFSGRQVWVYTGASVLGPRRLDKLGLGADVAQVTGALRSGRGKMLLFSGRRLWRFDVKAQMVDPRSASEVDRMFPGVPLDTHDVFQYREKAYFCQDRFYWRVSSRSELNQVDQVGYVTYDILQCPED
T2 sequence (P50282 20-708): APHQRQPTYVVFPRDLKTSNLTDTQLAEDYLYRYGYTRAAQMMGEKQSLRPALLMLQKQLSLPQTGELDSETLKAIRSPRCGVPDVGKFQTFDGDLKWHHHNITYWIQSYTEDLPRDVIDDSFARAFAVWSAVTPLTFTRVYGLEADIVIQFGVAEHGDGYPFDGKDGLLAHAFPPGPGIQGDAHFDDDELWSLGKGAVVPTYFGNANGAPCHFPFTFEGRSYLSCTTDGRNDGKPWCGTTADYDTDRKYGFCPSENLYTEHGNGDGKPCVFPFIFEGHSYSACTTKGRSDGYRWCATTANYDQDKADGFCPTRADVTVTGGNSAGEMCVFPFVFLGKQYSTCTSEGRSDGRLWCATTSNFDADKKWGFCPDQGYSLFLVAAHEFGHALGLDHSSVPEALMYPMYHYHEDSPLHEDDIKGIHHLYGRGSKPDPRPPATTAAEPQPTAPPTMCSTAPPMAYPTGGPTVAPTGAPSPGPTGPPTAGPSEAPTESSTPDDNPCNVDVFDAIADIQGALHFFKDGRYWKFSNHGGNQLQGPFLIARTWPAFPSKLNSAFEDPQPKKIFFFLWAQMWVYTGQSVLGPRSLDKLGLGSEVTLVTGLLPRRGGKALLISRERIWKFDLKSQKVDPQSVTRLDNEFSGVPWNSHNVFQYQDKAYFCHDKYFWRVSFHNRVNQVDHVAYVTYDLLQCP

`Cc1nc(C)c(-c2csc(Nc3cc(S(N)(=O)=O)ccc3OC(C)C)n2)s1` [Compound-α, 3-(2′,4′-Dimethyl-[4,5′]bithiazolyl-2-ylamino)-4-isopropoxy-benzenesulfonamide.HBr]: in assay [1], the “Percent of total signal, 80 kD” value amounted to 7%; the “Percent of total signal, 86 kD” value is given as 47%; the “Percent of total signal, 100 kD” value turned out to be 46%; the “Signal, Total” value is 91346 INT*mm^2. For the same compound, in assay [2] (50 mg/kg, SCW-induced rats), the “reduction of liver gelatinase activity” value is “approximately 80%”. Moreover, in assay [2] (20 mg/kg BID oral), the “Intensity, Mean” value came to 55.2 RLU × 10^6; the “Intensity, Rat 1” value came out at 43.0 RLU × 10^6; the “Intensity, Rat 2” value is listed as 69.0 RLU × 10^6; the “Intensity, Rat 3” value was found to be 53.7 RLU × 10^6. Moreover, in assay [2] (50 mg/kg BID oral), the “Intensity, Mean” value turned out to be 11.1 RLU × 10^6; the “Intensity, Rat 1” value worked out at 3.2 RLU × 10^6; the “Intensity, Rat 2” value is 25.6 RLU × 10^6; the “Intensity, Rat 3” value stood at 4.5 RLU × 10^6.

The values are drawn from US20120129843A1, “PYRIDYL-THIAZOLYL INHIBITORS OF PRO-MATRIX METALLOPROTEINASE ACTIVATION” (priority 2010, published 2012).
